# Reference: patent US5487990A (The General Hospital Corporation, priority 1992, dated 1996)
# Several values for one entry are separate records, joined by “and”; a condition that tells them apart may be missing. Equal entries are not always repeated. Entries after “also recorded” stand apart in the source; their conditions may differ. Where two headings read alike, the source gives them in different places.
# Assays:
# [1] = biological target: T1, Acetyl-CoA Hydrolase from S. cerevisiae (Saccharomyces cerevisiae, UniProt P32316); assay: biochemical; conditions: for remaining activity at 100 µM / remaining activity at 1000 µM / remaining activity at 5000 µM / remaining activity at 10000 µM: pH 7.4, read-out: Enzyme Activity (%); for Enzyme Activity (%): 100 mM potassium phosphate, pH 7.4, None = 100
# T1 sequence (P32316 1-526): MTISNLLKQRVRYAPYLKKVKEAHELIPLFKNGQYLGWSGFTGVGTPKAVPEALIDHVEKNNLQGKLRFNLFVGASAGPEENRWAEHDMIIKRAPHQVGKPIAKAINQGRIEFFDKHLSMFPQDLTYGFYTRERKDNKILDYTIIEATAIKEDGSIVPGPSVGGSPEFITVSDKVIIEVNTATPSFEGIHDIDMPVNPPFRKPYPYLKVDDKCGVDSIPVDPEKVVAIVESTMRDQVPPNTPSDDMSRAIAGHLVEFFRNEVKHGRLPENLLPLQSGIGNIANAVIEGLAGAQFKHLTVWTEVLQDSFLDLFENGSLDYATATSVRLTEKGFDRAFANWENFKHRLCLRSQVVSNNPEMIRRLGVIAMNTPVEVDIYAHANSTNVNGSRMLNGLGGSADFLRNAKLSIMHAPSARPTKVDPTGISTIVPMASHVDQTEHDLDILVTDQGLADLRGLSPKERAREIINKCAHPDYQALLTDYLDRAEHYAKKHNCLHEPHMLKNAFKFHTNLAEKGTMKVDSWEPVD
# Experimental: The assay mixture was incubated at 30° C. for 0.30 s, 1 min, 2 min, 3 min, 4 min, and 5 min. The reaction was stopped by adding 20 μl of 10 M acetic acid. The sample was evaporated by N2 stream at 30° C. to dryness in a fume hood, dissolved in 100 μl H2 O, and transferred to a scintillation vial containing 10 ml Ready-Solv EP scintillation cocktail. The sample tube was washed twice with 100 μl H2 O, each wash was transferred to the scintillation vial, and the radioactivity was determined by scintillation counting for 1 min.
# nucleotides and divalent cations in 100 mM potassium phosphate, pH 7.4.
# The enzyme activity was determined under standard radioactive assay
# conditions using ACTH (1-24) (N = 3), as described in the Examples.
# acylCoA in 100 mM phosphate buffer, pH 7.4.
# [2] = biological target: T2, soluble cytosolic acetyl-CoA hydrolase found in rat liver (Rattus norvegicus, UniProt Q99NB7); conditions: rat liver cytoplasmic, cold-labile enzyme; cited from earlier work
# T2 construct: host or cells: rat liver cytoplasm (Prass et al. 1980; Soling et al. 1985)
# T2 sequence (Q99NB7 whole entry): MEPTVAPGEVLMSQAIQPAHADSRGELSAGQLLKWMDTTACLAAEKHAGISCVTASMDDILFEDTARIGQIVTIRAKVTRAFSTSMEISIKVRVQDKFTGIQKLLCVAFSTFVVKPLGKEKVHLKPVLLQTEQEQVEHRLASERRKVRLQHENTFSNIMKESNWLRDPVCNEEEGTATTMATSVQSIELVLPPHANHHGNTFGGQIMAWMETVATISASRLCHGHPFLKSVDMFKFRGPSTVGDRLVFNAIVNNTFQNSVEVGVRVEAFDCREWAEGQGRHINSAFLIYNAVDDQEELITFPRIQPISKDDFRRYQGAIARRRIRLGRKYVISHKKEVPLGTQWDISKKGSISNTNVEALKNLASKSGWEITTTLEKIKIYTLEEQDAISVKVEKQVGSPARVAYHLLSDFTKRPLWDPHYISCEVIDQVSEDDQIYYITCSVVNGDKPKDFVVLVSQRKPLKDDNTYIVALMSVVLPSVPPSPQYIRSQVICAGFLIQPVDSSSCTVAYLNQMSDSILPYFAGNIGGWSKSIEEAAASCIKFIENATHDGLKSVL
# [3] = test system: mitochondrial acetyl-CoA hydrolase; conditions: cited from earlier work
# [4] = biological target: T1, Acetyl-CoA Hydrolase from S. cerevisiae; assay: biochemical; type: biochemical
# [5] = biological target: T1, Acetyl-CoA Hydrolase from S. cerevisiae; assay: Substrate specificity, colorimetric assay (DNTB, A412); type: biochemical; conditions: read-out: Relative Activity (%)
# [6] = 0.25 h, read-out: Enzyme Activity (%)
smiles,measurement,setting,value
"CC(C)(COP(=O)(O)OP(=O)(O)OC[C@H]1O[C@@H](n2cnc3c(N)ncnc32)[C@H](O)[C@@H]1OP(=O)(O)O)[C@@H](O)C(=O)NCCC(=O)NCCS [CoASH, coenzyme A]",effect on yeast enzyme activity (in words),[1],only weakly inhibited
same,inhibition at 25 µM,[1]; read-out: inhibition of hydrolysis of [1-14C] acetyl-CoA,< 30%
same,effect on enzyme (in words),[2],inhibited; also recorded: strong product inhibitor
same,effect on enzyme (in words),[3],only weakly inhibited; also recorded: weak inhibitor
"NC(=O)CI [IAM, iodoacetamide]",effect on enzyme activity (in words),[4],no effect; also recorded: partially inactivated
same,remaining activity at 1000 µM,[4]; [6],97%
same,remaining activity at 10000 µM,[4]; [6],85%
CC(C)(COP(=O)(O)OP(=O)(O)OC[C@H]1O[C@@H](n2cnc3c(N)ncnc32)[C@H](O)[C@@H]1OP(=O)(O)O)[C@@H](O)C(=O)NCCC(=O)NCCSC(=O)CC(=O)O [Malonyl-CoA],remaining activity at 100 µM,[1],93%
same,remaining activity at 1000 µM,[1],83%
same,remaining activity at 5000 µM,[1],52%
same,activity at 250 µM,[5],1%
O=S(=O)([O-])[O-].[Fe+2] [FeSO4],Enzyme Activity (%),[1]; addition 1 mM,98%
same,Enzyme Activity (%),[1]; addition 10 mM,88%
"O=C(O)CI [IAA, iodoacetic acid]",remaining activity at 1000 µM,[4]; [6],99%
same,remaining activity at 10000 µM,[4]; [6],89%
[Cl-].[Cl-].[Mg+2] [MgCl2],Enzyme Activity (%),[1]; addition 1 mM,95%
same,Enzyme Activity (%),[1]; addition 10 mM,72%
OCCS [2-mercaptoethanol],inactivation by chemical modification (in words),[4],did not affect enzyme activity
same,remaining activity at 10000 µM,[4]; [6],101%
NC(=O)C1=CN([C@@H]2O[C@H](COP(=O)(O)OP(=O)(O)OC[C@H]3O[C@@H](n4cnc5c(N)ncnc54)[C@H](OP(=O)(O)O)[C@@H]3O)[C@@H](O)[C@H]2O)C=CC1 [βNADPH],remaining activity at 100 µM,[1],99%
same,remaining activity at 1000 µM,[1],98%
same,remaining activity at 10000 µM,[1],96%
NO [hydroxylamine],original enzyme activity recovered,"[4]; depc-inactivated acetyl-coa hydrolase, 480 min, 250000 µM",≈ 55%
[Ca+2].[Cl-].[Cl-] [CaCl2],Enzyme Activity (%),[1]; addition 1 mM,97%
same,Enzyme Activity (%),[1]; addition 10 mM,84%
Nc1ncnc2c1ncn2[C@@H]1O[C@H](COP(=O)(O)O)[C@@H](O)[C@H]1O [AMP],remaining activity at 100 µM,[1],96%
same,remaining activity at 1000 µM,[1],89%
same,remaining activity at 10000 µM,[1],81%
"CCOC(=O)OC(=O)OCC [DEPC, diethyl pyrocarbonate]",inactivation by chemical modification (in words),[4],nearly complete inactivation; also recorded: inactivated
same,remaining activity at 500 µM,[4]; [6],19%
same,remaining activity at 5000 µM,[4]; [6],3%
CC(=O)n1ccnc1 [N-acetylimidazole],effect on enzyme activity (in words),[4],caused inactivation
same,remaining activity at 1000 µM,[4]; [6],101%
same,remaining activity at 10000 µM,[4]; [6],67%
CC(=O)CC(=O)SCCNC(=O)CCNC(=O)[C@H](O)C(C)(C)COP(=O)(O)OP(=O)(O)OC[C@H]1O[C@@H](n2cnc3c(N)ncnc32)[C@H](O)[C@@H]1OP(=O)(O)O [Acetoacetyl-CoA],remaining activity at 100 µM,[1],98%
same,remaining activity at 1000 µM,[1],92%
same,remaining activity at 5000 µM,[1],90%
same,activity at 250 µM,[5],5%
CCCC(=O)SCCNC(=O)CCNC(=O)[C@H](O)C(C)(C)COP(=O)(O)OP(=O)(O)OC[C@H]1O[C@@H](n2cnc3c(N)ncnc32)[C@H](O)[C@@H]1OP(=O)(O)O [Butyryl-CoA],remaining activity at 100 µM,[1],95%
same,remaining activity at 1000 µM,[1],86%
same,remaining activity at 5000 µM,[1],62%
same,activity at 250 µM,[5],4%
[Cl-].[Cl-].[Co+2] [CoCl2],Enzyme Activity (%),[1]; addition 1 mM,86%
same,Enzyme Activity (%),[1]; addition 10 mM,51%
O=S(=O)([O-])[O-].[Mg+2] [MgSO4],Enzyme Activity (%),[1]; addition 1 mM,98%
same,Enzyme Activity (%),[1]; addition 10 mM,75%
"O=C(O)c1cc[c]([Hg][Cl])cc1 [pCMB, p-chloromercuribenzoate]",Enzyme Activity (%),[4],102% and 88%
"CCN1C(=O)C=CC1=O [NEM, N-ethylmaleimide]",remaining activity at 1000 µM,[4]; [6],94%
same,remaining activity at 10000 µM,[4]; [6],52%
